According to patent publication US20130131321A1, “LIGANDS FOR ANTIBODY AND Fc-FUSION PROTEIN PURIFICATION BY AFFINITY CHROMATOGRAPHY” (GRAFFINITY PHARMACEUTICALS GMBH, priority 2010, published 2013):
Like-named read-outs stand apart in the source and are kept apart here.

Columns and labels:
Palivizumab = experiment: Microtiter plate chromatography of resins, Palivizumab (bound, yield); assay type: binding, humanized
Protocol: (§1) Resins were assessed in packed mode by microtiter plate chromatography. For each column, approximately 30 μl of resin were transferred to a 384-well filter plate and sealed with appropriate top frits.
(§2) Columns were equilibrated with 6.7 column volumes (cv) of phosphate buffered saline (0.15 M NaCl, 20 mM sodium phosphate, pH 7.3; PBS) prior to injection. Either 3.3 cv of whole IgGs dissolved at 0.75 mg ml^−1, Fab or Fc fragments dissolved at 0.25 mg ml^−1 (all three in PBS) or host cell proteins (HCP) were injected onto columns. Antibody fragments of Bevacizumab (Fab and Fc) were prepared by cleavage of whole IgG with papain protease (3) according to the protocol of the manufacturer. […] Volumes transferred were spun through columns at 50 g for 1-2 min. During injection of samples, acceleration was reduced to 10 g and centrifugation time increased to 5-10 min. Effluent fractions were collected in 384-well plates and concentrations of protein analyzed by Bradford assay. Protein masses mi, mft and me (see below) were calculated as the product of fraction volume and measured protein concentration.
(§3) The fraction of ‘bound’ protein was calculated as the difference between the total mass of protein injected mi and the mass of protein detected in the flowthrough mft, divided by the total mass of protein injected.
(§4) The ‘yield’ of protein was calculated as the mass of protein eluted me, divided by the mass of protein injected mi.
(§5) the fraction of ‘bound’ protein and the ‘yield’ of protein were calculated for each resin based on data for whole IgG-antibodies. In the case of Bevacizumab fragments and host cell proteins, only the fraction of ‘bound’ protein is given. Selectivity of resins was calculated from data for Bevacizumab Whole IgG and host cell proteins. Due to limited experimental precision, selectivity was truncated beyond values of 10.

Bevacizumab [1] = target: T1, Bevacizumab (Homo sapiens, UniProt P01857); experiment: Microtiter plate chromatography of resins, Bevacizumab whole IgG (bound, yield, selectivity); assay type: binding, humanized
T1 construct: fused on or other part: humanised anti-VEGF-A VH domain N-terminal of the gamma-1 constant region (engineered, no UniProt entry)
Protocol: as §1, §2, §3, §4
(§6) The ‘selectivity’ of resins was calculated as the fraction of bound antibody BAb, divided by the fraction of bound host cell proteins BHCP.
as §5

Bevacizumab [2] = experiment: as above; assay type: binding, humanized
Protocol: as §1, §2, §3, §4, §6, §5

Tocilizumab = experiment: Microtiter plate chromatography of resins, Tocilizumab (bound, yield); assay type: binding, humanized
Protocol: as §1, §2, §3, §4, §5

host cell proteins (HCP) = experiment: Microtiter plate chromatography of resins, host cell proteins (bound); assay type: binding, CHO
Protocol: Flowthrough from protein A chromatography (referred to as host cell proteins) was derived from the supernatant of antibody-producing CHO cell culture in serum-free medium.
as §1, §2, §3, §5

[3] = tested on: human poly-IgG (h-poly-IgG); experiment: Microtiter plate chromatography of resins, human poly-IgG (bound, yield); assay type: binding
Protocol: as §1, §2, §3, §4, §5

[4] = fraction of whole IgG Bevacizumab bound to resin
[5] = mass of whole IgG Bevacizumab eluted / mass injected
[6] = fraction of injected protein bound to resin
[7] = fraction of injected whole IgG bound to resin
[8] = mass eluted / mass injected, whole IgG
[9] = fraction of injected host cell proteins bound to resin

Compound | Palivizumab Bound (%) (Palivizumab) | Palivizumab Yield (%) (Palivizumab) | Bevacizumab IgG Bound (%) (Bevacizumab [1]; [4]) | Bevacizumab IgG Yield (%) (Bevacizumab [1]; [5]) | Selectivity (Bevacizumab [2]) | Tocilizumab Bound (%) (Tocilizumab) | Tocilizumab Yield (%) (Tocilizumab) | HCP Bound (%) (host cell proteins (HCP); host cell proteins) | h-poly-IgG Bound (%) [3] | h-poly-IgG Yield (%) [3] | Palivizumab Bound (%) (Palivizumab; [6]) | Palivizumab Yield (%) (Palivizumab; mass eluted / mass injected) | Bevacizumab IgG Bound (%) (Bevacizumab [1]; [7]) | Bevacizumab IgG Yield (%) (Bevacizumab [1]; [8]) | Tocilizumab Bound (%) (Tocilizumab; [6]) | Tocilizumab Yield (%) (Tocilizumab; mass eluted / mass injected) | HCP Bound (%) (host cell proteins (HCP); [9]) | h-poly-IgG Bound (%) [3, 6] | h-poly-IgG Yield (%) ([3]; mass eluted / mass injected) | Selectivity (Bevacizumab [2]; bound Bevacizumab whole IgG / bound HCP, truncated beyond values of 10)
COc1ccc(NC(=O)c2n[nH]c3ccccc23)cc1C(=O)NCCCN [Ligand L36, 5-(Indazol-3-yl)carboxamido-2-methoxybenzoic acid N-(3-aminopropyl)amide] | 100% | 100% | 100% | 100% | 1.9 | 100% | 95% | 54% | 95% | 77% |  |  |  |  |  |  |  |  |  | 
Cc1c(NC(=O)c2cc(-c3cccs3)n(C)n2)cccc1C(=O)NCCCN [Ligand L9, 2-Methyl-3-[1-methyl-5-(2-thienyl)pyrazol-3-yl]carboxamidobenzoic acid N-(3-aminopropyl)amide] | 41% | 33% | 100% | 91% | 1.7 | 71% | 64% | 58% | 65% | 53% |  |  |  |  |  |  |  |  |  | 
COc1ccc(NC(=O)c2occ3ccccc23)cc1C(=O)NCCCN [Ligand L32, 5-(Benzo[c]furan-1-yl)carboxamido-2-methoxybenzoic acid N-(3-aminopropyl)amide] | 100% | 95% | 100% | 87% | 2.0 | 100% | 95% | 49% | 95% | 74% |  |  |  |  |  |  |  |  |  | 
COc1ccc(NC(=O)c2cc(C(F)(F)F)n(C)n2)cc1C(=O)NCCCN [Ligand L34, 2-Methoxy-5-[1-methyl-5-(trifluoromethyl)pyrazol-3-yl]carboxamidobenzoic acid N-(3-aminopropyl)amide] | 73% | 72% | 100% | 89% | 2.6 | 85% | 80% | 39% | 78% | 61% |  |  |  |  |  |  |  |  |  | 
COc1ccc(NC(=O)c2cncc(-c3ccccc3)c2)cc1C(=O)NCCCN [Ligand L11, 2-Methoxy-5-(3-phenylpyridin-5-yl)carboxamidobenzoic acid N-(3-aminopropyl)amide] | 78% | 75% | 95% | 94% | 1.7 | 100% | 89% | 56% | 89% | 79% |  |  |  |  |  |  |  |  |  | 
COc1ccc(NC(=O)c2cc(-c3ccccc3)no2)cc1C(=O)NCCCN [Ligand L51, 2-Methoxy-5-(3-phenylisoxazol-5-ylcarboxamido)benzoic acid (3-amino-1-propyl)amide] | 85% | 85% | 100% | 95% | 3.3 | 95% | 93% | 30% | 89% | 89% |  |  |  |  |  |  |  |  |  | 
Cn1nc(NC(=O)c2cccc(C(=O)NCCCN)c2)c2ccccc21 [Ligand L71, Isophthalic acid N-(3-aminopropyl)-N′-(1-methylindazol-3-yl)amide] |  |  |  |  | 4.0 |  |  |  |  |  | 24% | 24% | 100% | 88% | 51% | 49% | 25% | 45% | 45% | 
NCCCNC(=O)c1cccc(C(=O)Nc2ncc(-c3ccccc3)s2)c1 [Ligand L74, Isophthalic acid N-(3-aminopropyl)-N′-(5-phenylthiazol-2-yl)amide] |  |  |  |  | 1.9 |  |  |  |  |  | 88% | 86% | 100% | 96% | 97% | 91% | 53% | 91% | 90% | 
Cc1ccc(C(=O)NCCCN)cc1NC(=O)c1cc(-c2cccs2)n(C)n1 [Ligand L10, 4-Methyl-3-[1-methyl-5-(2-thienyl)pyrazol-3-yl]carboxamidobenzoic acid N-(3-aminopropyl)amide] | 59% | 62% | 100% | 91% | 1.5 | 86% | 73% | 68% | 72% | 60% |  |  |  |  |  |  |  |  |  | 
COc1ccc(NC(=O)c2nn(CCO)c3ccccc23)cc1C(=O)NCCCN [Ligand L59, 5-[1-(2-Hydroxyethyl)indazol-3-ylcarboxamido]-2-methoxybenzoic acid (3-amino-1-propyl)amide] | 64% | 64% | 100% | 97% | 3.1 | 89% | 89% | 32% | 71% | 71% |  |  |  |  |  |  |  |  |  | 
COc1ccc(NC(=O)c2cc(-c3ccco3)n(C)n2)cc1C(=O)N(C)CCCN [Ligand L28, 5-[5-(2-Furyl)-1-methylpyrazol-3-yl]carboxamido-2-methoxybenzoic acid N-(3-aminopropyl)-N-methylamide] | 55% | 50% | 100% | 81% | 2.9 | 63% | 61% | 35% | 58% | 44% |  |  |  |  |  |  |  |  |  | 
COc1ccc(NC(=O)c2cc(-c3ccco3)ccn2)cc1C(=O)NCCCN [Ligand L52, 5-[4-(2-Furyl)pyridin-2-ylcarboxamido]-2-methoxybenzoic acid (3-amino-1-propyl)amide] | 100% | 83% | 100% | 99% | 2.4 | 100% | 100% | 41% | 100% | 100% |  |  |  |  |  |  |  |  |  | 
COc1ccc(NC(=O)c2cn3ccsc3n2)cc1C(=O)NCCOCCOCC(=O)NCCCN [Ligand L77, 8-[5-(Imidazo-[2,1-b]thiazol-6-ylcarboxamido)-2-methoxyphenylcarboxamido]-3,6-dioxaoctanoic acid (3-amino-1-propyl)amide] |  |  |  |  |  |  |  |  |  |  | 55% | 55% | 100% | 96% | 80% | 80% | 10% | 65% | 65% | 10.0
